How the values were obtained:
Experiment in all cases: combination Emax (second highest fraction inhibited in the dose matrix, 72 h); higher = more inhibition; extreme values may be limits of the assay
[1] = system: MFE-319 (Endometrial Carcinoma)
Method in brief: (§1)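 After 24 hours at 37°C and 5% CO2 in 1536-well plates, cells in DMEM/F12 or RPMI plus 10% FBS received two-drug dose matrices for 72 hours. Viability came from CellTiter-Glo 2.0 luminescence and was scaled as inhibition, anchored at 0 by vehicle wells and at 1 by blank wells. Combination Emax is taken as the second-highest inhibition in the matrix, and Bliss excess as the observed combination effect less EA + EB − EA·EB, with EA and EB the single-agent effects.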

EW-13 (Ewing's Sarcoma) = system: EW-13 (Ewing's Sarcoma)
Method in brief: as §1

RPMI-7951 (Melanoma) = system: RPMI-7951 (Melanoma)
Method in brief: as §1

[2] = system: SCC-9 (Oral Cavity Carcinoma)
Method in brief: as §1

NH-12 (Neuroblastoma) = system: NH-12 (Neuroblastoma)
Method in brief: as §1

[3] = system: BV-173 (Chronic Myelogenous Leukemia)
Method in brief: as §1

[4] = system: KYSE-150 (Esophageal Squamous Cell Carcinoma)
Method in brief: as §1

[5] = system: TGBC11TKB (Gastric Carcinoma)
Method in brief: as §1

A704 (Kidney Carcinoma) = system: A704 (Kidney Carcinoma)
Method in brief: as §1

[6] = system: EBC-1 (Squamous Cell Lung Carcinoma)
Method in brief: as §1

[7] = system: LC4-1 (B-Lymphoblastic Leukemia)
Method in brief: as §1

[8] = system: PF-382 (T-Lymphoblastic Leukemia)
Method in brief: as §1

EW-3 (Ewing's Sarcoma) = system: EW-3 (Ewing's Sarcoma)
Method in brief: as §1

[9] = system: JHH-7 (Hepatocellular Carcinoma)
Method in brief: as §1

GI-1 (Glioblastoma) = system: GI-1 (Glioblastoma)
Method in brief: as §1

[10] = system: NCI-N87 (Gastric Carcinoma)
Method in brief: as §1

GOTO (Neuroblastoma) = system: GOTO (Neuroblastoma)
Method in brief: as §1

[11] = system: OVISE (Ovarian Carcinoma)
Method in brief: as §1

[12] = system: HC-1 (Other Blood Carcinomas)
Method in brief: as §1

[13] = system: NCI-H322M (Lung Adenocarcinoma)
Method in brief: as §1

Row | Compound | combination Emax [1] | combination Emax (EW-13 (Ewing's Sarcoma)) | combination Emax (RPMI-7951 (Melanoma)) | combination Emax [2] | combination Emax (NH-12 (Neuroblastoma)) | combination Emax [3] | combination Emax [4] | combination Emax [5] | combination Emax (A704 (Kidney Carcinoma)) | combination Emax [6] | combination Emax [7] | combination Emax [8] | combination Emax (EW-3 (Ewing's Sarcoma)) | combination Emax [9] | combination Emax (GI-1 (Glioblastoma)) | combination Emax [10] | combination Emax (GOTO (Neuroblastoma)) | combination Emax [11] | combination Emax [12] | combination Emax [13]
1 | C[C@@H](c1ccc2nccn2c1)n1nnc2ncc(-c3cnn(C)c3)nc21 [Savolitinib] + CC1(C)CCC(CN2CCN(c3ccc(C(=O)NS(=O)(=O)c4ccc(NCC5CCOCC5)c([N+](=O)[O-])c4)c(Oc4cnc5[nH]ccc5c4)c3)CC2)=C(c2ccc(Cl)cc2)C1 [Venetoclax] (first compound max 1 µM, 7x7, partner max 1 µM) | 0 | 0.128 | 0.13 | 0.116 | 0.406 | 0.781 | 0.189 | 0.0823 | 0.246 | 0.968 | 1 | 0.134 | 0.379 | 0.114 | 0.317 | 0.22 | 0.266 | 0.0991 | 0.173 | 0.0582
2 | COc1cccc(OCCCN)c1-c1cc(Nc2cnc(C#N)cn2)n[nH]1 [Prexasertib] + CCc1c2c(nc3ccc(O)cc13)-c1cc3c(c(=O)n1C2)COC(=O)[C@]3(O)CC [SN-38] (first compound max 1 µM, 7x7, partner max 0.3 µM) | 0.897 | 0.84 | 0.997 | 0.561 | 0.935 | 0.967 | 0.966 | 0.982 | 0.749 | 0.953 | 0.966 | 0.994 | 0.838 | 0.736 | 1 | 0.816 | 0.94 | 0.689 | 1 | 0.982
3 | CC(=O)c1c(C)c2cnc(Nc3ccc(N4CCNCC4)cn3)nc2n(C2CCCC2)c1=O [Palbociclib] + Cc1c2c(nn1C)CSCc1cc(n(C)n1)CSc1cc(c3ccccc3c1)OCCCc1c(C(=O)O)n(C)c3c-2c(Cl)ccc13 [AZD5991] (first compound max 10 µM, 7x7, partner max 1 µM) | 0.887 | 0.488 | 0.732 | 0.217 | 0.478 | 0.88 | 0.585 | 0.355 | 0.595 | 0.36 | 0.937 | 0.633 | 0.772 | 0.203 | 0.455 | 0.417 | 0.802 | 0.25 | 0.654 | 0.501
4 | CC1(C)CCC(CN2CCN(c3ccc(C(=O)NS(=O)(=O)c4ccc(NCC5CCOCC5)c([N+](=O)[O-])c4)c(Oc4cnc5[nH]ccc5c4)c3)CC2)=C(c2ccc(Cl)cc2)C1 [Venetoclax] + COc1cc(Nc2ncc3c(n2)-c2ccc(Cl)cc2C(c2c(F)cccc2OC)=NC3)ccc1C(=O)O [Alisertib] (first compound max 1 µM, 7x7, partner max 10 µM) | 0.395 | 0.294 | 0.683 | 0.274 | 0.977 | 0.971 | 0.516 | 0.387 | 0.758 | 0.436 | 1 | 0.905 | 0.847 | 0.287 | 0.506 | 0.335 | 0.719 | 0.578 | 0.861 | 0.352
5 | NC1(C(=O)N[C@@H](CCO)c2ccc(Cl)cc2)CCN(c2ncnc3[nH]ccc23)CC1 [Capivasertib] + CC(=O)c1c(C)c2cnc(Nc3ccc(N4CCNCC4)cn3)nc2n(C2CCCC2)c1=O [Palbociclib] (first compound max 10 µM, 7x7, partner max 10 µM) | 0.611 | 0.296 | 0.854 | 0.289 | 0.519 | 0.87 | 0.644 | 0.166 | 0.665 | 0.612 | 0.578 | 0.743 | 0.414 | 0.302 | 0.626 | 0.76 | 0.81 | 0.467 | 0.632 | 0.639
6 | CN(C)CCCOc1ccc(-c2ccc3ncc4c(c3c2)n(C2CCOCC2)c(=O)n4C)cn1 [AZD0156] + C[C@@H]1COCCN1C2=NC(=NC(=C2)C3(CC3)[S@](=N)(=O)C)C4=C5C=CNC5=NC=C4 [AZD6738] (first compound max 1 µM, 7x7, partner max 10 µM) | 0.683 | 0.581 | 0.886 | 0.321 | 0.901 | 0.975 | 0.589 | 0.799 | 0.392 | 0.535 | 0.908 | 0.855 | 0.751 | 0.32 | 0.926 | 0.704 | 0.913 | 0.759 | 0.77 | 0.922
7 | C=CCn1c(=O)c2cnc(Nc3ccc(N4CCN(C)CC4)cc3)nc2n1-c1cccc(C(C)(C)O)n1 [AZD1775] + C[C@@H]1COCCN1C2=NC(=NC(=C2)C3(CC3)[S@](=N)(=O)C)C4=C5C=CNC5=NC=C4 [AZD6738] (first compound max 1 µM, partner max 10 µM) | 0.825 | 0.653 | 0.951 | 0.434 | 0.937 | 0.988 | 0.756 | 0.922 | 0.57 | 0.616 | 0.952 | 0.966 | 0.804 | 0.642 | 0.984 | 0.806 | 0.888 | 0.777 | 0.971 | 0.871
8 | CC1(C)CCC(CN2CCN(c3ccc(C(=O)NS(=O)(=O)c4ccc(NCC5CCOCC5)c([N+](=O)[O-])c4)c(Oc4cnc5[nH]ccc5c4)c3)CC2)=C(c2ccc(Cl)cc2)C1 [Venetoclax] + CN(C)CCCOc1ccc(-c2ccc3ncc4c(c3c2)n(C2CCOCC2)c(=O)n4C)cn1 [AZD0156] (first compound max 1 µM, 7x7, partner max 1 µM) | 0.243 | 0.062 | 0.304 | 0.174 | 0.483 | 0.833 | 0.237 | 0.235 | 0.185 | 0.275 | 1 | 0.256 | 0.799 | 0.18 | 0.234 | 0.461 | 0.455 | 0.262 | 0.207 | 0.31
9 | COc1cc2ncnc(Nc3ccc(F)c(Cl)c3)c2cc1OCCCN1CCOCC1 [Gefitinib] + CC(C)n1c(=O)n(C)c2cnc3cc(F)c(-c4ccc(OCCCN5CCCCC5)nc4)cc3c21 [AZD1390] (first compound max 10 µM, 7x7, partner max 0.3 µM) | 0.0734 | 0.117 | 0.0802 | 0.626 | 0.121 | 0.391 | 0.353 | 0.296 | 0.439 | 0.0862 | 0.221 | 0.323 | 0.254 | 0.115 | 0.18 | 0.845 | 0.257 | 0.197 | 0.387 | 0.718
10 | NC1(C(=O)N[C@@H](CCO)c2ccc(Cl)cc2)CCN(c2ncnc3[nH]ccc23)CC1 [Capivasertib] + Cn1cnc2c(F)c(Nc3ccc(Br)cc3Cl)c(C(=O)NOCCO)cc21 [Selumetinib] (first compound max 10 µM, 7x7, partner max 10 µM) | 0.644 | 0.249 | 0.793 | 0.723 | 0.585 | 0.718 | 0.743 | 0.462 | 0.434 | 0.963 | 0.575 | 0.764 | 0.24 | 0.418 | 0.622 | 0.755 | 0.469 | 0.454 | 0.601 | 0.582
11 | CC(=O)c1c(C)c2cnc(Nc3ccc(N4CCNCC4)cn3)nc2n(C2CCCC2)c1=O [Palbociclib] + CC1(C)CCC(CN2CCN(c3ccc(C(=O)NS(=O)(=O)c4ccc(NCC5CCOCC5)c([N+](=O)[O-])c4)c(Oc4cnc5[nH]ccc5c4)c3)CC2)=C(c2ccc(Cl)cc2)C1 [Venetoclax] (first compound max 10 µM, 7x7, partner max 1 µM) | 0.172 | 0.0985 | 0.431 | 0.13 | 0.592 | 0.848 | 0.455 | 0.142 | 0.625 | 0.223 | 1 | 0.633 | 0.599 | 0.132 | 0.03 | 0.417 | 0.802 | 0.104 | 0.611 | 0.492
12 | Cc1c2c(nn1C)CSCc1cc(n(C)n1)CSc1cc(c3ccccc3c1)OCCCc1c(C(=O)O)n(C)c3c-2c(Cl)ccc13 [AZD5991] + C[C@@H]1COCCN1C2=NC(=NC(=C2)C3(CC3)[S@](=N)(=O)C)C4=C5C=CNC5=NC=C4 [AZD6738] (first compound max 1 µM, 7x7, partner max 10 µM) | 0.932 | 0.805 | 0.98 | 0.331 | 0.901 | 0.965 | 0.543 | 0.889 | 0.487 | 0.491 | 0.981 | 0.929 | 0.892 | 0.268 | 0.995 | 0.688 | 0.92 | 0.615 | 0.926 | 0.94
